Measurements taken from patent publication US9102967B2, “PmST2 enzyme for chemoenzymatic synthesis of α-2-3-sialylglycolipids” (priority 2012, dated 2015).

What was measured:
[1] = molecular target: T1, MBP-PmST2-His6 (Pasteurella multocida, UniProt Q9CNC4, M25T); type: biochemical; conditions: MnCl2/MgCl2 1, 5, 10 or 20 mM; EDTA or 2-ME 1 or 10 mM; acceptor LacβPro-triazole-C14
T1 construct: used to clone of the full-length MBP-PmST2-His6 fusion protein in pMa1-c4X vector; made in house; host or cells: E. coli BL21(DE3)
Procedure: Reactions were carried out in duplicate at 37° C. for 15 min in a total volume of 15 μl in a Tris-HCl buffer (200 mM, pH 8.0) containing LacβPro-triazole-C14 (2 mM), CMP-Neu5Ac (8 mM), 0.3% Triton X-100, and the enzyme (2.4 μg μl^−1). For metal effects, various concentrations (1, 5, 10, or 20 mM) of MgCl2 or MnCl2 were added and ethylenediaminetetraacetic acid (EDTA as chelating agent was used at two concentrations (1 or 10 mM). A reducing reagent 2-mercaptoethanol (2-ME) was used at two concentrations (1 or 10 mM). Reaction without metal ions, EDTA, or 2-ME was used as a control. All reactions were stopped by adding 15 μl of pre-chilled 95% ethanol and the reaction mixtures were kept on ice. The samples were centrifuged at 13,000 rpm for 5 min before the supernatants were analyzed by CE as described above.

[2] = test system: N. meningitidis (MC58 and 406Y) Lst; conditions: previous report; cited from earlier work
[3] = molecular target: T2, PmST1 (Pasteurella multocida, UniProt Q15KI8); conditions: cited from earlier work
T2 sequence (Q15KI8 entry or part of it): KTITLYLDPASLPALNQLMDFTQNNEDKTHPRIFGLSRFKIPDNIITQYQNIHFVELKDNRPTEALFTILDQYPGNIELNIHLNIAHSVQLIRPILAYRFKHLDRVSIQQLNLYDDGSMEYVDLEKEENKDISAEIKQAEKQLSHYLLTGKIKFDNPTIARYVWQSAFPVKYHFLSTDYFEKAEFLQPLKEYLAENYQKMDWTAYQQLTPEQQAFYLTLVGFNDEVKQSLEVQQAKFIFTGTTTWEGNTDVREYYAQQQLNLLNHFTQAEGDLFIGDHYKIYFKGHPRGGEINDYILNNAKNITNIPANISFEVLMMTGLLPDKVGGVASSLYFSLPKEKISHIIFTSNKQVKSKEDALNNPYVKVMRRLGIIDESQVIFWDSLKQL

[4] = molecular target: T1, MBP-PmST2-His6; assay: Acceptor substrate specificity studies (CE analysis); type: biochemical; conditions: for % product formation: acceptor 2 mM, CMP-Neu5Ac 4 mM, 10 min, 37° C., pH 8.0, 0.4% Triton X-100; for % Relative: relative to LacβPro-triazole-C14 = 100
Procedure: Enzymatic Reactions. All reactions were carried out in duplicate for 10 min at 37° C. in a total volume of 10 μl in Tris-HCl (200 mM, pH 8.0) containing an acceptor substrate (2 mM), CMP-Neu5Ac (4 mM), 0.4% Triton X-100, and enzyme (3.6 μg μl^−1). Addition of 15 μl of cold 95% ethanol was used to terminate each reaction. All reactions were incubated on ice for 10 min and were then centrifuged for 5 min at 13,000 rpm. The supernatant was transferred to a new vial for CE analysis.

[5] = molecular target: T1, MBP-PmST2-His6; type: biochemical; conditions: for Km / kcat / Vmax: apparent, 37° C.; for Km: Tris-HCl pH 8.0, 0.3% Triton X-100, varied substrate, other fixed (LacβPro-triazole-C14 2.0 mM or CMP-Neu5Ac 4.0 mM); for kcat: pH 8.0; for Vmax: pH 8.0, enzyme 14 μM
Procedure: Reactions were carried out at 37° C. for […] in a total volume of 15 μl in Tris-HCl buffer (200 mM, pH 8.0) containing 2-mercaptoethanol (1 mM), 0.3% Triton X-100, enzyme (14 μM), with varied CMP-Neu5Ac concentrations (0.25, 0.5, 1.0, 2.0, 5.0, and 10.0 mM) and a fixed LacβPro-triazole-C14 (2.0 mM) concentration, or varied LacβPro-triazole-C14 concentrations (0.5, 1.0, 2.0, 5.0, 10.0, and 20.0 mM) or varied LacβPro2AA concentrations (0.5, 1.0, 2.0, 5.0, 10.0, and 25.0 mM) and a fixed CMP-Neu5Ac concentration (4.0 mM). HPLC assays were used for reactions with LacβPro2AA as the sialyltransferase acceptor and CE assays were used for reactions with LacβPro-triazole-C14 as the sialyltransferase acceptor. Apparent kinetic parameters were obtained by fitting the data (the average values of duplicate assay results) into the Michaelis-Menten equation using Grafit 5.0.

[6] = molecular target: T1, MBP-PmST2-His6; assay: Time-course study of α-2,3-sialyltransferase activity; type: biochemical; conditions: acceptor 2 mM, CMP-Neu5Ac 8 mM, 37° C., pH 8.0
Procedure: (§1) Enzymatic reactions were performed in a total volume of 20 μl (when LacβPro2AA was used as an acceptor) or 40 μl (when LacβPro-triazole-C 14 was used as an acceptor) in a Tris-HCl buffer (200 mM, pH 8.0) containing an acceptor (2 mM of LacβPro2AA or LacβPro-triazole-C14), CMP-Neu5Ac (8 mM), 0.3% Triton X-100, and a sialyltransferase ([…] MBP-PmST2-His6 or PmST1) at 37° C. At different time points (0, 1, 5, 10, 15, 20, 30, and 60 min), 1.5 μl aliquots were taken from the LacβPro2AA reaction and pre-chilled 12% acetonitrile aqueous solution (148.5 μl) was added to each aliquot. Similarly, 3.5 μl aliquots were taken from the LacβPro-triazole-C14 reaction at different time points and pre-chilled 95% ethanol (7 μl) was added to each aliquot. All samples were kept on ice for 10 min and then centrifuged for 5 min at 13,000 rpm. Supernatants from LacβPro2AA reactions were analyzed by a Shimadzu LC-2010A HPLC system equipped with a membrane on-line degasser, a temperature control unit, and a fluorescence detector (the excitation wavelength was set at 315 nm and the emission wavelength was set at 400 nm) using a reverse phase Premier C18 column (250×4.6 mm I.D., 5 μm particle size, Shimadzu) protected with a C18 guard column cartridge. Mobile phase used was 12% acetonitrile in water. Supernatants from LacβPro-triazole-C14 reactions were analyzed by a Beckman P/ACE MDQ capillary electrophoresis (CE) system (60 cm×75 μm i.d.) equipped with a PDA detector (optimal absorption at 214 nm). The running buffer used was sodium borate buffer (50 mM, pH 10.2) containing β-cyclcodextrin (20 mM).

[7] = molecular target: T2, PmST1; assay: as above; type: biochemical
Procedure: as §1

[8] = molecular target: T1, MBP-PmST2-His6; assay: pH profile of α2-3-sialyltransferase reaction; type: biochemical; conditions: acceptor 2 mM, 0.3% Triton X-100
Procedure: Each reaction was carried out in duplicate at 37° C. for 15 min in a buffer (200 mM) with a total volume of 15 μl containing an acceptor (2 mM, LacβPro2AA or LacβPro-triazole-C14), CMP-Neu5Ac (8 mM), 0.3% Triton X-100, and the enzyme MBP-PmST2-His6 (2.4 μg μl^−1). Buffers used were: NaOAc-HOAc (pH 4.0-6.0), Tris-HCl (pH 7.0-9.0), and CHES (pH 10.0). Enzymatic reactions were terminated by adding 15 μl of pre-chilled 95% ethanol. All samples were kept on ice for 10 min and then centrifuged at 13,000 rpm for 5 min. Supernatants were analyzed by HPLC (for LacβPro2AA reaction) or CE (for LacβPro-triazole-C14 reaction) as described above for the time course studies.

With `OCCS` [2-mercaptoethanol, reference compound] as the compound, how does the “effect on α2,3-sialyltransferase activity (in words)” value [1] read?
Its value is “did not affect”.

What does the source list for `[Cl][Mn][Cl]` [MnC12, MnCl2]?
stimulation of activity [2]: 3 fold; effect on α2,3-sialyltransferase activity (in words) [1]: did not affect the activity significantly; effect on sialyltransferase activity of PmST1 (in words) [3]: activity decreases

For lactosyl ceramide [reference compound], which “acceptor substrate for PmST2 (in words)” value [4] is on record?
Its value is “not an acceptor”.

For “Galβ1-4GlcNAcβPro-triazole-C14 [LacNAcβPro-triazole-C14]”, which “% product formation” value [4] is on record?
Its value is 18.5 ± 2.7%.

And the “% Relative” value [4]?
The value was 51.2%.

Which results are given for `[Cl-].[Cl-].[Mg+2]` [MgC12, MgCl2]?
stimulation of activity [2]: 2 fold; effect on α2,3-sialyltransferase activity (in words) [1]: did not affect the activity significantly; effect on sialyltransferase activity of PmST1 (in words) [3]: does not stimulate or change the sialyltransferase activity

Which results are given for `CCCCCCCCCCCCCCc1cn(CCCOC2OC(CO)C(O)C(O)C2O)nn1` (stereo not shown) [GalβPro-triazole-C14]?
% product formation [4]: 9.2 ± 1.3%; % Relative [4]: 25.5%

What does the source list for `CCCCCCCCCCCCCCc1cn(CCCO[C@H]2O[C@H](CO)[C@H](O)[C@H](O[C@@H]3O[C@H](CO)[C@H](O)[C@H](O)[C@H]3O)[C@H]2NC(C)=O)nn1` [Galβ1-3GalNAcαPro-triazole-C14]?
% product formation [4]: <2%; % Relative [4]: <6%

Which results are given for Galβ1-3GlcNAcαPro-triazole-C14?
% product formation [4]: <2%; % Relative [4]: <6%

Which results are given for “cytidine 5′-monophosphate N-acetylneuraminic acid [CMP-Neu5Ac, reference compound]”?
Km [5]: 1300 ± 100 µM; kcat [5]: 0.0883 ± 0.0067 s⁻¹; Vmax [5]: (7.4 ± 0.5) × 10^−2 mM min^−1

Which “acceptor substrate for PmST2 (in words)” value [4] does the source give for “Galβ1-4GlcβPro-triazole-C14 [LacβPro-triazole-C14]” here?
The value was “best acceptor substrate”.

And the “% product formation” value [4]?
Its value is 36.1 ± 1.5%.

And the “% Relative” value [4]?
The value was 100%.

What about the “fold difference in KM values (stronger binding) versus LacβPro2AA” value [5] of the same compound?
Its value is 7 fold.

What about the Km [5] of the same compound?
Its Km is 4100 ± 300 µM.

And the kcat [5]?
The kcat was 0.2 ± 0.017 s⁻¹.

And the Vmax [5]?
The Vmax was “(1.7 ± 0.1) × 10^−1 mM min^−1”.

What about the “fold higher catalytic activity versus LacβPro2AA as acceptor” value ([5]; from differences in KM and kcat) of the same compound?
Its value is 10 fold.

And the “sialylation achieved in 1 hour” value [6]?
The value was 60%.

And the “time at which the sialyltransferase reaction reached optimum” value ([7]; acceptor 2 mM, CMP-Neu5Ac 8 mM, 37° C., pH 8.0)?
Its value is 15 min.

And the “product formation at optimum” value ([7]; at 15 min)?
Its value is “less than 5%”.

What about the “optimal pH range with this acceptor” value [8] of the same compound?
The value was 5.0-8.0.

Which “effect on α2,3-sialyltransferase activity (in words)” value [1] does the source give for `O=C(O)CN(CCN(CC(=O)O)CC(=O)O)CC(=O)O` [EDTA, ethylenediaminetetraacetic acid, reference compound] here?
The value was “did not affect the activity significantly”.

What does the source list for `CCCCCCCCCCCCCCc1cn(CCCOC2OC(CO)C(O)C(OC3OC(CO)C(O)C(O)C3O)C2NC(C)=O)nn1` (stereo not shown) [Galβ1-3GlcNAcβPro-triazole-C14]?
% product formation [4]: <4%; % Relative [4]: <11%
